The text below walks through data of US5108916A, “Process for stereoselectively hydrolyzing, transesterifying or esterifying with immobilized isozyme of lipase from Candida rugosa” (priority 1989, dated 1992).

The nature of one series: Solubility of HPPA-Me. The format is physicochemical. The settings on record: aqueous solution, pH 6.5.
In a further series the test system is Lipase MY. Description: Product inhibition of Lipase MY. Type of series: biochemical, Candida rugosa. Conditions: various amounts (30, 100 mM) at the beginning. The method, then:
Two hydrolysis reactions were run to determine the effect of methanol, produced as a by-product of the hydrolysis of HPPA-Me, on the activity of Lipase MY. (R,S)-HPPA-Me, 1.5 moles, 1 L of 1 M NH4 OAc, pH 6.5, 150 ml toluene, and 2 g Lipase MY were placed in flasks with and without 0.75 moles of methanol. The mixtures were shaken gently and sampled at various times to determine the concentrations of each of the stereoisomers of HPPA which were produced.
To determine the effect of the (R)-HPPA produced during the hydrolysis of (R,S)-HPPA-Me on the activity of Lipase MY, a series of three experiments were performed. Ammonium acetate, 200 ml, 0.04 M, pH 7.0, was combined with 30 ml of toluene, 40 mmoles (R,S)-HPPA-Me, 25 mg Lipase MY, and 0, 30, or 100 mM (R)-HPPA. The reactions were shaken gently for 136 hours and sampled at various times to determine the concentrations of each of the stereoisomers of HPPA which were produced.

Regarding `CC(Oc1ccc(O)cc1)C(=O)O` (centres unmarked) [HPPA, 2-(4-hydroxyphenoxy)propionic acid], the solubility entry in “Solubility of HPPA-Me” is listed as “high solubility”. Moreover, the “reduction in enzyme activity” value in the series with Lipase MY is recorded as 10-67%.
